Measurements reported in BindingDB's records for doi:10.1021/jm00008a002 (Warner-Lambert, 1995).

Molecular target: Endothelin-1 receptor (Oryctolagus cuniculus)
Assay: Tested for antagonistic activity against Endothelin A receptor in the rabbit renal artery vascular smooth muscle cells.

| IC50 [nM] | Structure (SMILES) |
| --- | --- |
| 6 | COc1ccc(C2(O)OC(=O)C(c3ccc4c(c3)OCO4)=C2Cc2ccc(OC)c(C)c2)cc1 (configuration not stated) [3-Benzo[1,3]dioxol-5-yl-5-hydroxy-4-(4-methoxy-3-methyl-benzyl)-5-(4-methoxy-phenyl)-5H-furan-2-one] |
| 310 | COc1ccc(CC2=C(c3ccc(Cl)c(Cl)c3)C(=O)OC2(O)c2ccc(OC)cc2)cc1 (configuration not stated) [3-(3,4-Dichloro-phenyl)-5-hydroxy-4-(4-methoxy-benzyl)-5-(4-methoxy-phenyl)-5H-furan-2-one] |
